Reference: EP0042553B1, “Antitumor compositions” (Bristol-Myers Company, priority 1980, dated 1981)
Counter-ions that a name gives are not always drawn.

What was measured:
[1] = Stability / clarity of reconstituted aqueous solution; type: physicochemical
Method: Stability: 15 mg salt was reconstituted with 10 ml sterile water.
The product salt may be reconstituted with water to give a 5-7.5 mg/ml solution which remains clear at 17°C for at least 6 hours.
(§1) The above mixture can be rapidly (<3 min.) reconstituted with sterile water. The 50 mg/ml solution and 1, 2, 5 and 10 mg/ml dilutions remain clear for at least 24 hours at 15-20°C.
(§2) The above mixture is made according to the general procedure of Example 5.

[2] = Reconstitution time with water; type: physicochemical; details: 5, 7.5 and 10 mg/ml; at 24°C (75°F)
Method: Reconstituted aqueous solutions of 5, 7.5 and 10 mg/ml were readily obtained with 3 minutes shaking at 24°C (75°F). Solubility of the salt in water at room temperature is at least 15 mg/ml.
as §1, §2

Solubility in water = type: physicochemical
animal tumor systems = details: Cain, et al., Europ. J. Cancer 10:539-549 (1974); cited from earlier work
[3] = prior art statement; cited from earlier work
[4] = Compatibility with ions in aqueous solution; type: physicochemical; details: insoluble precipitates form
Method: The solid compositions (all three types) provided according to the present invention are reconstituted with sterile water or sterile aqueous vehicle. The preferred unit dosage forms described above may, for example, be reconstituted with one milliliter of sterile water or sterile aqueous vehicle to form relatively concentrated m-AMSA solutions or such solutions may be diluted to form more dilute (e.g. 5 mg/ml m-AMSA activity) solutions. […] Reconstitution, therefore, should be effected with vehicles substantially free of the above-mentioned ions.
Caution: Solutions of m-AMSA are incompatible with chloride, sulfate, phosphate and carbonate ions. Precipitates form.

COc1cc(NS(C)(=O)=O)ccc1Nc1c2ccccc2nc2ccccc12 [Preparation 4, Crystalline L(+)-Monolactate hemiacetonate of m-AMSA]
activity loss ([1]; 15 mg salt in 10 ml sterile water, after 2 weeks storage at 45°C): < 6% | Stability: time the solution was stable ([1]; 15 mg salt reconstituted with 10 ml sterile water): at least 24 hours

COc1cc(NS(C)(=O)=O)ccc1Nc1c2ccccc2nc2ccccc12 [Preparation 6, Crystalline DL-Monolactate acetone solvate of m-AMSA]
time solution remains clear ([1]; 5-7.5 mg/ml solution in water at 17°C): at least 6 hours | shaking time to obtain reconstituted aqueous solutions [2]: 3 min | solubility (Solubility in water; at room temperature): ≥ 15 mg/mL

COc1cc(NS(C)(=O)=O)ccc1Nc1c2ccccc2nc2ccccc12 [Preparation 9, Crystalline m-AMSA monogluconate salt]
solubility (Solubility in water; at 50-60°C): 30 mg/mL

COc1cc(NS(C)(=O)=O)ccc1Nc1c2ccccc2nc2ccccc12 [m-AMSA, 4'-(9-acridinylamino)-methanesulfon-m-anisidide]
antitumor activity (animal tumor systems): significant antitumor activity | solubility in water (in words) [3]: very limited | compatibility in aqueous solution with chloride, sulfate, phosphate and carbonate ions [4]: incompatible

COc1cc(NS(C)(=O)=O)ccc1Nc1c2ccccc2nc2ccccc12.Cl [monohydrochloride]
solubility in water (in words) [3]: insufficiently water-soluble

COc1cc(NS(C)(=O)=O)ccc1Nc1c2ccccc2nc2ccccc12.CS(=O)(=O)O [monomethanesulfonate]
solubility in water (in words) [3]: insufficiently water-soluble
